{
  "source": "ChEMBL document CHEMBL1138875",
  "about": "“Design and synthesis of substituted pyridine derivatives as HIF-1alpha prolyl hydroxylase inhibitors” (Bioorg Med Chem Lett, 2006)",
  "note": "pIC50: −log10 of the molar value.",
  "data": [
    {"target": "Egl nine homolog 1 (Homo sapiens, UniProt Q9GZT9)", "sequence (Q9GZT9 whole entry)": "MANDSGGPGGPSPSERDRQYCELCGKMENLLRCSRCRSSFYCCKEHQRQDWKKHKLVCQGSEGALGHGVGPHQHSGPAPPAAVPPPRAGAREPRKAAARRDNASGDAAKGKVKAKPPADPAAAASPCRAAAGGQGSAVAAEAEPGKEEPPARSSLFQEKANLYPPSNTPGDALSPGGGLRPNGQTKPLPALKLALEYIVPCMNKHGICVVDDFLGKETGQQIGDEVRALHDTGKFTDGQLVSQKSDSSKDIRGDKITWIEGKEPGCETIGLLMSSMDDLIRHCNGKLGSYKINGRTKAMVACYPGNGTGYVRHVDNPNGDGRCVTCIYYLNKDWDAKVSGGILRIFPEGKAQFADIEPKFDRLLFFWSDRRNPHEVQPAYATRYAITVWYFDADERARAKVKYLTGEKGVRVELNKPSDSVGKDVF", "assay": "Inhibition of EGLN1", "values": [
      {"smiles": "O=C(O)CNC(=O)c1ccccn1", "pIC50": "< 4.00"},
      {"smiles": "O=C(O)CNC(=O)c1ccc(-c2cccc(Cl)c2)cn1", "pIC50": "< 4.00"},
      {"smiles": "O=C(O)CNC(=O)c1cc(-c2ccc(Cl)cc2)ccn1", "pIC50": "< 4.00"}
    ]}
  ]
}
